Test system: MV-4-11 cells
Test: Gene expression microarray analysis (Affymetrix PrimeView) and GSEA
Format: cell-based, human
Design: RFU PODN (11730768_x_at) / Fold change /veh PODN (11730768_x_at) / RFU LINC00158 (11744669_a_at) / Fold change /veh LINC00158 (11744669_a_at) / RFU DUSP10 (11751237_a_at) / Fold change /veh DUSP10 (11751237_a_at) / RFU ID3 (11757404_x_at) / Fold change /veh ID3 (11757404_x_at) / RFU PLEKHG5 (11737974_s_at) / Fold change /veh PLEKHG5 (11737974_s_at) / RFU LRRC4B (11730491_at) / Fold change /veh LRRC4B (11730491_at) / RFU GIMAP4 (11747438_a_at) / Fold change /veh GIMAP4 (11747438_a_at) / RFU KRT8 (11758183_x_at) / Fold change /veh KRT8 (11758183_x_at) / RFU CNN1 (11734310_a_at) / Fold change /veh CNN1 (11734310_a_at) / RFU VPS37D (11726825_at) / Fold change /veh VPS37D (11726825_at) / RFU C10orf10 (11716522_x_at) / Fold change /veh C10orf10 (11716522_x_at) / RFU KIR2DL2 /// KIR2DL4 /// KIR2DL5A /// KIR2DL5B /// KIR2DS1 /// KIR2DS2 /// KIR2DS3 /// KIR2DS4 /// KIR3DL3 /// KIR3DL3 /// KIR3DS1 (11738374_at) / Fold change /veh KIR2DL2 /// KIR2DL4 /// KIR2DL5A /// KIR2DL5B /// KIR2DS1 /// KIR2DS2 /// KIR2DS3 /// KIR2DS4 /// KIR3DL3 /// KIR3DL3 /// KIR3DS1 (11738374_at) / RFU C1QL1 (11718748_at) / Fold change /veh C1QL1 (11718748_at) / RFU TMPRSS4 (11747572_a_at) / Fold change /veh TMPRSS4 (11747572_a_at) / RFU HAMP (11756126_x_at) / Fold change /veh HAMP (11756126_x_at) / RFU RNFT2 (11725882_a_at) / Fold change /veh RNFT2 (11725882_a_at) / RFU NR4A2 (11747474_a_at) / Fold change /veh NR4A2 (11747474_a_at) / RFU ABCC12 (11746883_a_at) / Fold change /veh ABCC12 (11746883_a_at) / RFU TMEM136 (11760407_x_at) / Fold change /veh TMEM136 (11760407_x_at) / RFU CLDN22 /// WWC2 (11732394_at) / Fold change /veh CLDN22 /// WWC2 (11732394_at) / RFU HLA-DPB1 (11760878_x_at) / Fold change /veh HLA-DPB1 (11760878_x_at) / RFU SPINT1 (11716480_a_at) / Fold change /veh SPINT1 (11716480_a_at) / RFU GAP43 (11754022_s_at) / Fold change /veh GAP43 (11754022_s_at) / RFU A4GNT (11735810_at) / Fold change /veh A4GNT (11735810_at) / RFU PRB3 (11715151_x_at) / Fold change /veh PRB3 (11715151_x_at) / RFU TUBB4B (11761932_at) / Fold change /veh TUBB4B (11761932_at) / RFU CAPN14 (11732068_a_at) / Fold change /veh CAPN14 (11732068_a_at) / RFU TMCC2 (11721928_a_at) / Fold change /veh TMCC2 (11721928_a_at) / RFU IRGQ (11745062_a_at) / Fold change /veh IRGQ (11745062_a_at) / RFU FAM174B (11720279_a_at) / Fold change /veh FAM174B (11720279_a_at) / RFU TMPRSS4 (11748680_a_at) / Fold change /veh TMPRSS4 (11748680_a_at) / RFU FAM212B (11763350_a_at) / Fold change /veh FAM212B (11763350_a_at) / RFU PLEKHG5 (11743358_a_at) / Fold change /veh PLEKHG5 (11743358_a_at) / RFU ZSCAN30 (11745921_a_at) / Fold change /veh ZSCAN30 (11745921_a_at) / RFU CMKLR1 (11741424_a_at) / Fold change /veh CMKLR1 (11741424_a_at) / RFU LOC101060620 /// MAPK8IP1 (11723275_at) / Fold change /veh LOC101060620 /// MAPK8IP1 (11723275_at) / RFU SPTSSB (11747773_x_at) / Fold change /veh SPTSSB (11747773_x_at) / RFU PRSS12 (11739890_at) / Fold change /veh PRSS12 (11739890_at) / RFU BIN1 (11741810_x_at) / Fold change /veh BIN1 (11741810_x_at) / RFU WNT11 (11732464_a_at) / Fold change /veh WNT11 (11732464_a_at) / RFU C10orf10 (11716521_a_at) / Fold change /veh C10orf10 (11716521_a_at) / RFU C5orf56 (11738089_at) / Fold change /veh C5orf56 (11738089_at) / RFU CYB561 (11721691_x_at) / Fold change /veh CYB561 (11721691_x_at) / RFU ANKRD19P (11752326_a_at) / Fold change /veh ANKRD19P (11752326_a_at) / RFU OR2T12 /// OR2T33 /// OR2T8 (11738714_s_at) / Fold change /veh OR2T12 /// OR2T33 /// OR2T8 (11738714_s_at) / RFU VCAN (11748164_a_at) / Fold change /veh VCAN (11748164_a_at) / RFU JSRP1 (11732532_at) / Fold change /veh JSRP1 (11732532_at) / RFU KRTAP10-11 (11738290_x_at) / Fold change /veh KRTAP10-11 (11738290_x_at) / RFU MYO3A (11730013_a_at) / Fold change /veh MYO3A (11730013_a_at) / RFU EBF3 (11725865_a_at) / Fold change /veh EBF3 (11725865_a_at) / RFU CAMK2N1 (11719241_x_at) / Fold change /veh CAMK2N1 (11719241_x_at) / RFU C5orf56 (11738088_a_at) / Fold change /veh C5orf56 (11738088_a_at) / RFU OLFML3 (11715873_a_at) / Fold change /veh OLFML3 (11715873_a_at) / RFU LOC100653217 /// NTM (11731650_a_at) / Fold change /veh LOC100653217 /// NTM (11731650_a_at) / RFU MAPK11 (11762145_a_at) / Fold change /veh MAPK11 (11762145_a_at) / RFU FIZ1 (11724087_x_at) / Fold change /veh FIZ1 (11724087_x_at) / RFU OASL (11726364_x_at) / Fold change /veh OASL (11726364_x_at) / RFU SOX15 (11748057_x_at) / Fold change /veh SOX15 (11748057_x_at) / RFU CD79A (11719716_a_at) / Fold change /veh CD79A (11719716_a_at) / RFU HIST1H1D (11736915_at) / Fold change /veh HIST1H1D (11736915_at) / RFU CASKIN2 (11723855_a_at) / Fold change /veh CASKIN2 (11723855_a_at) / RFU LOC730098 (11760151_x_at) / Fold change /veh LOC730098 (11760151_x_at) / RFU OR4N2 (11742367_at) / Fold change /veh OR4N2 (11742367_at) / RFU PRRT2 (11749266_a_at) / Fold change /veh PRRT2 (11749266_a_at) / RFU SNX32 (11753110_a_at) / Fold change /veh SNX32 (11753110_a_at) / RFU CDHR5 (11726645_a_at) / Fold change /veh CDHR5 (11726645_a_at) / RFU RCAN1 (11760418_a_at) / Fold change /veh RCAN1 (11760418_a_at) / RFU FAM167A (11723789_a_at) / Fold change /veh FAM167A (11723789_a_at) / RFU FAM26E (11764081_at) / Fold change /veh FAM26E (11764081_at) / RFU ISYNA1 (11749810_s_at) / Fold change /veh ISYNA1 (11749810_s_at) / RFU ACY1 (11761880_at) / Fold change /veh ACY1 (11761880_at) / RFU 11764098_at / Fold change /veh 11764098_at / RFU SAMD14 (11745864_x_at) / Fold change /veh SAMD14 (11745864_x_at) / RFU NPB (11741838_a_at) / Fold change /veh NPB (11741838_a_at) / RFU TMPRSS6 (11731388_a_at) / Fold change /veh TMPRSS6 (11731388_a_at) / RFU KRTAP10-2 (11738614_at) / Fold change /veh KRTAP10-2 (11738614_at) / RFU ARHGAP8 /// PRR5-ARHGAP8 (11727945_x_at) / Fold change /veh ARHGAP8 /// PRR5-ARHGAP8 (11727945_x_at) / RFU KRTAP5-7 /// NADSYN1 (11734609_at) / Fold change /veh KRTAP5-7 /// NADSYN1 (11734609_at) / RFU RASL12 (11751679_a_at) / Fold change /veh RASL12 (11751679_a_at) / RFU CDKN2B (11736163_a_at) / Fold change /veh CDKN2B (11736163_a_at) / RFU PRF1 (11729649_at) / Fold change /veh PRF1 (11729649_at) / RFU, ZNF638 /// ZNF638-IT1 / Fold change vs veh, ZNF638 /// ZNF638-IT1 / RFU, PANK3 / Fold change vs veh, PANK3 / RFU, SH3YL1 / Fold change vs veh, SH3YL1 / RFU, ZEB2 / Fold change vs veh, ZEB2 / RFU, NRIP1 / Fold change vs veh, NRIP1 / RFU, PTTG1IP / Fold change vs veh, PTTG1IP / RFU, CAPN2 / Fold change vs veh, CAPN2 / RFU, MED14 / Fold change vs veh, MED14 / RFU, SNORA58 / Fold change vs veh, SNORA58 / RFU, C1orf63 / Fold change vs veh, C1orf63 / RFU, LRRFIP1 / Fold change vs veh, LRRFIP1 / RFU, NDUFAF7 / Fold change vs veh, NDUFAF7 / RFU, SLC12A2 / Fold change vs veh, SLC12A2 / RFU, IBTK / Fold change vs veh, IBTK / RFU, ESF1 / Fold change vs veh, ESF1 / Fold change vs veh, TMEM50B / RFU, TAOK1 / Fold change vs veh, TAOK1 / RFU, ACBD3 / Fold change vs veh, ACBD3 / RFU, TMA16 / Fold change vs veh, TMA16 / RFU, RWDD3 / Fold change vs veh, RWDD3 / RFU, BCAT1 / Fold change vs veh, BCAT1 / RFU, EDEM3 / Fold change vs veh, EDEM3 / RFU, TMEM33 / Fold change vs veh, TMEM33 / RFU, WDR75 / Fold change vs veh, WDR75 / RFU, AHCTF1 / Fold change vs veh, AHCTF1 / RFU, TFRC / Fold change vs veh, TFRC / RFU, ZDHHC17 / Fold change vs veh, ZDHHC17 / RFU, NOM1 / Fold change vs veh, NOM1 / RFU, ARL8B / Fold change vs veh, ARL8B / RFU, ZBTB11 / Fold change vs veh, ZBTB11 / RFU, TAMM41 / Fold change vs veh, TAMM41 / RFU, KIAA1704 /// LOC100996395 / Fold change vs veh, KIAA1704 /// LOC100996395 / RFU, ING1 / Fold change vs veh, ING1 / RFU, TRMT61B / Fold change vs veh, TRMT61B / RFU, FUBP3 / Fold change vs veh, FUBP3 / RFU, TP53 / Fold change vs veh, TP53 / RFU, TNKS2 / Fold change vs veh, TNKS2 / RFU, ZFP14 / Fold change vs veh, ZFP14 / RFU, ACTR2 / Fold change vs veh, ACTR2 / RFU, PPP3R1 / Fold change vs veh, PPP3R1 / RFU, PIK3R1 / Fold change vs veh, PIK3R1 / RFU, HNRNPA1 / Fold change vs veh, HNRNPA1 / RFU, RNF170 / Fold change vs veh, RNF170 / RFU, ZNF28 / Fold change vs veh, ZNF28 / RFU, RNGTT / Fold change vs veh, RNGTT / RFU, OGT / Fold change vs veh, OGT / RFU, BRD1 / Fold change vs veh, BRD1 / RFU, MARS / Fold change vs veh, MARS / RFU, ZNF655 / Fold change vs veh, ZNF655 / RFU, FAHD1 / Fold change vs veh, FAHD1 / RFU, BDP1 / Fold change vs veh, BDP1 / RFU, LRRCC1 / Fold change vs veh, LRRCC1 / RFU, ARID1A / Fold change vs veh, ARID1A / RFU, ZNF146 / Fold change vs veh, ZNF146 / RFU, ZNF330 / Fold change vs veh, ZNF330 / RFU, GPN3 / Fold change vs veh, GPN3 / RFU, C9orf123 / Fold change vs veh, C9orf123 / RFU, N4BP2L2 / Fold change vs veh, N4BP2L2 / RFU, ARFIP1 / Fold change vs veh, ARFIP1 / RFU, FAM179B / Fold change vs veh, FAM179B / RFU, BCL10 / Fold change vs veh, BCL10 / RFU, UHRF1BP1L / Fold change vs veh, UHRF1BP1L / RFU, BET1 / Fold change vs veh, BET1 / RFU, CNOT2 / Fold change vs veh, CNOT2 / RFU, ZNF268 / Fold change vs veh, ZNF268 / Fold change vs veh, ZNF507 / RFU, DGCR2 / Fold change vs veh, DGCR2 / RFU, WDSUB1 / Fold change vs veh, WDSUB1 / Fold change vs veh, HSP90B1 /// MIR3652 / RFU, ADSS / Fold change vs veh, ADSS / RFU, GK / Fold change vs veh, GK / RFU, ZNF148 / Fold change vs veh, ZNF148 / RFU, TAF9 / Fold change vs veh, TAF9 / RFU, SLC1A5 / Fold change vs veh, SLC1A5 / RFU, SLMO2 / Fold change vs veh, SLMO2 / RFU, ABCC4 / Fold change vs veh, ABCC4 / RFU, LOC101060439 /// RAP1B / Fold change vs veh, LOC101060439 /// RAP1B / RFU, RFX7 / Fold change vs veh, RFX7 / RFU, GTPBP10 / Fold change vs veh, GTPBP10 / RFU, CNEP1R1 / Fold change vs veh, CNEP1R1 / RFU, BIVM-ERCC5 /// ERCC5 / Fold change vs veh, BIVM-ERCC5 /// ERCC5 / RFU, ILF3 / Fold change vs veh, ILF3 / RFU 11762660_at / Fold change /veh 11762660_at / RFU VCAN (11757783_s_at) / Fold change /veh VCAN (11757783_s_at) / RFU DDX43 (11728927_at) / Fold change /veh DDX43 (11728927_at) / RFU KRT8 (11758188_x_at) / Fold change /veh KRT8 (11758188_x_at) / RFU NKD1 (11759106_at) / Fold change /veh NKD1 (11759106_at) / RFU SRD5A1 (11742802_a_at) / Fold change /veh SRD5A1 (11742802_a_at) / RFU TPSAB1 /// TPSB2 (11721975_s_at) / Fold change /veh TPSAB1 /// TPSB2 (11721975_s_at) / RFU GSTM3 (11746129_a_at) / Fold change /veh GSTM3 (11746129_a_at) / RFU IL23R (11737362_x_at) / Fold change /veh IL23R (11737362_x_at) / RFU TMEM51 (11727254_a_at) / Fold change /veh TMEM51 (11727254_a_at) / RFU PIWIL2 (11732686_x_at) / Fold change /veh PIWIL2 (11732686_x_at) / RFU ORM1 (11744905_x_at) / Fold change /veh ORM1 (11744905_x_at) / RFU CCDC152 (11743942_at) / Fold change /veh CCDC152 (11743942_at) / RFU ECM1 (11717891_a_at) / Fold change /veh ECM1 (11717891_a_at) / RFU IL23R (11748794_a_at) / Fold change /veh IL23R (11748794_a_at) / RFU TNFAIP8L3 (11732012_x_at) / Fold change /veh TNFAIP8L3 (11732012_x_at) / RFU MBOAT4 (11741988_at) / Fold change /veh MBOAT4 (11741988_at) / RFU 11764193_at / Fold change /veh 11764193_at / RFU TMEM53 (11763286_at) / Fold change /veh TMEM53 (11763286_at) / RFU MAGEB2 (11727129_at) / Fold change /veh MAGEB2 (11727129_at) / RFU TMEM200A (11744735_a_at) / Fold change /veh TMEM200A (11744735_a_at) / RFU CCDC152 (11751479_a_at) / Fold change /veh CCDC152 (11751479_a_at) / RFU FAM211A (11726209_a_at) / Fold change /veh FAM211A (11726209_a_at) / RFU RGS16 (11746705_a_at) / Fold change /veh RGS16 (11746705_a_at) / RFU VCAN (11755009_s_at) / Fold change /veh VCAN (11755009_s_at) / RFU RHOB (11743442_s_at) / Fold change /veh RHOB (11743442_s_at) / RFU RGS16 (11720943_a_at) / Fold change /veh RGS16 (11720943_a_at) / RFU RGS16 (11720944_at) / Fold change /veh RGS16 (11720944_at) / RFU, VPS4B / Fold change vs veh, VPS4B / RFU, CREB1 / Fold change vs veh, CREB1 / RFU, DNAJC13 / Fold change vs veh, DNAJC13 / RFU, GNAQ / Fold change vs veh, GNAQ / RFU, CDK5R1 / Fold change vs veh, CDK5R1 / RFU, ZRANB3 / Fold change vs veh, ZRANB3 / RFU, CUL4A / Fold change vs veh, CUL4A / RFU, CCNY / Fold change vs veh, CCNY / RFU, UFL1 / Fold change vs veh, UFL1 / RFU, COG3 / Fold change vs veh, COG3 / RFU, DIAPH2 / Fold change vs veh, DIAPH2 / RFU, SKA2 / Fold change vs veh, SKA2 / RFU, AFF3 / Fold change vs veh, AFF3 / RFU, LMF1 / Fold change vs veh, LMF1 / RFU, IPO11 / Fold change vs veh, IPO11 / RFU, DFFB / Fold change vs veh, DFFB / RFU, FOXP1 / Fold change vs veh, FOXP1 / RFU, CARD8 / Fold change vs veh, CARD8 / RFU, STRN3 / Fold change vs veh, STRN3 / RFU, ADK / Fold change vs veh, ADK / RFU, RASSF2 / Fold change vs veh, RASSF2 / RFU, WIPF1 / Fold change vs veh, WIPF1 / RFU, LARP1B / Fold change vs veh, LARP1B / RFU, RASA1 / Fold change vs veh, RASA1 / RFU, RB1 / Fold change vs veh, RB1 / RFU, PPFIA1 / Fold change vs veh, PPFIA1 / RFU, MAT2A / Fold change vs veh, MAT2A / RFU, CCT5 / Fold change vs veh, CCT5 / RFU, WDR92 / Fold change vs veh, WDR92 / RFU, CUX1 / Fold change vs veh, CUX1 / RFU, TTC7A / Fold change vs veh, TTC7A / RFU, TMEM135 / Fold change vs veh, TMEM135 / RFU, DEPTOR / Fold change vs veh, DEPTOR / RFU, CPM / Fold change vs veh, CPM / RFU, DNAJB6 / Fold change vs veh, DNAJB6 / RFU, CACNA2D3 / Fold change vs veh, CACNA2D3 / RFU, DTX4 / Fold change vs veh, DTX4 / RFU, TFCP2 / Fold change vs veh, TFCP2 / RFU, GMCL1 /// GMCL1P1 / Fold change vs veh, GMCL1 /// GMCL1P1 / RFU, AEBP2 / Fold change vs veh, AEBP2 / RFU, SNHG1 /// SNORD22 /// SNORD25 /// SNORD26 /// SNORD27 /// SNORD28 /// SNORD29 /// SNORD31 / Fold change vs veh, SNHG1 /// SNORD22 /// SNORD25 /// SNORD26 /// SNORD27 /// SNORD28 /// SNORD29 /// SNORD31 / Fold change (Aza/veh), C12orf56 (ProbeSet 11735607_a_at) / Fold change (ACY-1035/veh), C12orf56 (ProbeSet 11735607_a_at) / Fold change (Aza/veh), FGFR1OP (ProbeSet 11751329_s_at) / Fold change (ACY-1035/veh), FGFR1OP (ProbeSet 11751329_s_at) / Fold change (Aza/veh), VPS36 (ProbeSet 11739960_a_at) / Fold change (ACY-1035/veh), VPS36 (ProbeSet 11739960_a_at) / RFU SYPL1 (11715823_x_at) / Fold change /veh SYPL1 (11715823_x_at) / RFU IGFBP7 (11715501_s_at) / Fold change /veh IGFBP7 (11715501_s_at) / RFU REEP3 (11722064_at) / Fold change /veh REEP3 (11722064_at) / RFU IGLL1 (11728026_x_at) / Fold change /veh IGLL1 (11728026_x_at): dose or concentration left out as unconfirmed
Details: ProbeSet 11727958_a_at; LIST B

Q: Which “RFU, ING1” value does the source give for Nc1ncn([C@@H]2O[C@H](CO)[C@@H](O)[C@H]2O)c(=O)n1 [azacitidine] here?
A: 72.09 RFU

Source: article PMC5218480 (PLoS ONE, 2017)
